{"source": "patent US20040033940A1", "about": "“Cyclic hepta-peptide derivative from colonial ascidians, lissoclinum SP” (Pharma Mar, S.A., priority 2002, published 2004)", "key": {"[1]": {"test_system": "P-388 (suspension culture of a lymphoid neoplasm from DBA-2 mouse)", "procedure": "(§1) Cells were maintained in logarithmic phase of growth in Eagle's Minimum Essential Medium, with Earle's Balanced Salts, with 2.0 mM L-glutamine, with non-essential amino acids, without sodium bicarbonate (EMEM/neaa); supplemented with 10% Fetal Calf Serum (FCS), 10^−2 M sodium bicarbonate and 0.1 g/l penicillin-G+streptomycin sulfate.\nA simple screening procedure was carried out to determine and compare the antitumor activity of this compound, using an adapted form of the method described by Bergeron et al. [Biochem. Bioph. […] The antitumor cells employed were P-388 (suspension culture of a lymphoid neoplasm from DBA-2 mouse), A-549 (monolayer culture of a human lung carcinoma), HT-29 (monolayer culture of a human colon carcinoma) and MEL-28 (monolayer culture of a human melanoma).\nP-388 cells were seeded into 16 mm wells at 1×10^4 cells per well in 1 ml aliquots of MEM 5FCS containing the indicated concentration of drug. A separate set of cultures without drug was seeded as control growth to ensure that cells remained in exponential phase of growth. All determinations were carried out in duplicate. After three days of incubation at 37° C., 10% CO2 in a 98% humid atmosphere, an approximate IC50 was determined by comparing the growth in wells with drug to the growth in wells control."}, "[2]": {"test_system": "A-549 (monolayer culture of a human lung carcinoma)", "procedure": "as §1\n(§2) The antitumor cells employed were P-388 (suspension culture of a lymphoid neoplasm from DBA-2 mouse), A-549 (monolayer culture of a human lung carcinoma), HT-29 (monolayer culture of a human colon carcinoma) and MEL-28 (monolayer culture of a human melanoma).\n(§3) A-549, HT-29 and MEL-28 cells were seeded into 16 mm wells at 2×10^4 cells per well in 1 ml aliquots of MEM 10FCS containing the indicated concentration of drug. A separate set of cultures without drug was seeded as control growth to ensure that cells remained in exponential phase of growth. All determinations were carried in duplicate. After three days of incubation at 37° C., 10% CO2 in a 98% humid atmosphere, the wells were stained with 0.1% Crystal Violet. An approximate IC50 was determined by comparing the growth in wells with drug to the growth in wells control."}, "[3]": {"test_system": "HT-29 (monolayer culture of a human colon carcinoma)", "procedure": "as §1, §2, §3"}, "[4]": {"test_system": "MEL-28 (monolayer culture of a human melanoma)", "procedure": "as §1, §2, §3"}}, "note": "Starred links: 1 amine or outer side, 2 acyl side, 3 side chain; linkers in the order of their positions; H or OH if unused. Non-standard residues stand in square brackets, D forms with d. Residues, ends and D or L forms follow the SMILES beside them. *: point of attachment. X1 = O=C([C@@H]1CSC([C@H](Cc2ccccc2)N[*:1])=N1)[*:2]; Allyl(1,1-Me2) = C=CC(C)(C)*", "data": [{"smiles": "C=CC(C)(C)OC[C@@H]1NC(=O)[C@H]([C@@H](C)OC(C)(C)C=C)NC(=O)[C@@H]2CSC(=N2)[C@H](Cc2ccccc2)NC(=O)[C@@H]2CCCN2C(=O)[C@H](C)NC(=O)[C@H]([C@@H](C)CC)NC1=O", "note": "[trunkamide A] (cyclo(AP[X1]T(Allyl(1,1-Me2))S(Allyl(1,1-Me2))I))", "values": [{"measurement": "IC50 P-388", "setting": "[1]", "value": 0.5, "unit": "µg/mL"}, {"measurement": "IC50 A-549", "setting": "[2]", "value": 0.5, "unit": "µg/mL"}, {"measurement": "IC50 HT-29", "setting": "[3]", "value": 0.5, "unit": "µg/mL"}, {"measurement": "IC50 MEL-28", "setting": "[4]", "value": 1.0, "unit": "µg/mL"}]}]}
